# Patent US20240229098A1, “BIOLUMINOGENIC ASSAY FOR DRUG-RESISTANCE BACTERIA DETECTION” (priority 2021, published 2024)
# What was measured:
# TEM-1 = TEM-1 (Escherichia coli, UniProt P62593); experiment: Limit of detection of recombinant β-lactamase by bioluminescence (TEM-1); format: biochemical; design: made in house; details: 2 hours, room temperature; 3 SD of negative control
# KPC-3 = KPC-3 (Klebsiella pneumoniae, UniProt Q9F663, H272Y); experiment: Limit of detection of recombinant β-lactamase by bioluminescence (KPC-3); format: biochemical; details: 2 hours, room temperature; 3 SD of negative control
# [1] = tested on: clinically bacteria isolates in urine samples; experiment: RAPID BLI assay, summary for clinical bacteria isolates in urine samples; format: cell-based; details: in 30 mins
# Excerpt: The source of the bioluminescence background emission in bioluminogenic pro-luciferin probes was investigated. In addition to trace amounts of free D-luciferin in the sample, pro-luciferin probes can be oxidized by luciferases due to the promiscuity of the enzyme […]. […] By combining BRET quenching and chemical caging, an ultrasensitive bioluminescent probe D-Bluco was developed that could detect as low as 10-18 moles of β-lactamase activity.
# E. cloacae/AmpC = experiment: RAPID BLI test, clinic isolate spiked into synthetic urine, E. cloacae/AmpC; details: E. cloacae/AmpC in synthetic urine, D-Bluco 10 μM
# Experimental: The modified rapid BLI protocol is applied. The signal of D-Bluco in PBS was subtracted before plotting. The working concentration of D-Bluco was 10 μM. All the studies were duplicated at room temperature in PBS (pH=7.4). Statistical significance was calculated using the unpaired two-tailed Student's t test (** p<0.0021, *** p<0.0002, **** p<0.0001, for comparison with 10^5 cfu/mL E. coli) (** p<0.0021, **** p<0.0001, ns: not significant). RLU indicates relative light units. Dotted line represents 3SD of the negative control.
# (§3) Bacteria was mixed with 0.5% CHAPS lysis buffer for 15 min, and then incubated with D-Bluco at room temperature for another 15 min. The resulted mixture was combined with assay buffer which contains MgCl2, CoA, ATP, and luciferase for immediate bioluminescent reading.
# Clinic isolates representing different classes (class A: Enterobacter cloacae/IMI, E. coli/TEM, K. pneumoniae/KPC; class B: E. coli/NDM, and class C: E. cloacae/AmpC) were spiked into synthetic urine samples.
# [2] = tested on: E. coli expressing OXA-48; experiment: Clinical isolate spiked in synthetic urine, filtered and centrifuged, E. coli expressing OXA-48; format: cell-based, Escherichia coli; details: E. coli expressing OXA-48, 10 μM D-Bluco, an hour at 37° C., PBS pH 7.4
# Experimental: (§1) FIGS. 11A-11C illustrate detection of clinical isolates spiked in urine with D-Bluco a) Workflow for clinical sample detection b) Bioluminescent response for different concentrations of S. marcescens (SME) or c) E. coli/OXA-48 spiked into synthetic urine samples following the incubation with D-Bluco (10 μM) at 37° C. for an hour. Bioluminescent signal was measured and compared to that of E. coli (10^6 c.f.u/mL).
# (§2) Urinary tract infection (UTI) is a severe public health problem because of the high recurrence rates and increasing antimicrobial resistance. It is among the major cause of patient morbidity and health care expenditures for both men and women of all age groups, accounting for 1 million cases of nosocomial in USA annually and an estimate cost of 1.6 billion. As a proof-of-concept, we spiked different concentrations of clinic isolates into synthetic urine samples. E. coli expressing OXA-48 and S. marcescens (SME) were chosen as examples. S. marcescens, being an opportunistic pathogen, accounts for an average of 6.5% of all Gram negative infection in intensive Care Units. The spiked urine samples were filtered and centrifuged to collect the bacteria (FIG. 11A). The collected bacteria were then diluted in PBS (pH=7.4) and incubated with 10 μM D-Bluco for an hour at 37° C.
# E. coli/NDM lysate = experiment: Bioluminescence with bacterial lysate compared to intact bacteria, E. coli/NDM; details: CHAPS lysis
# Experimental: To evaluate whether releasing β-lactamases from periplasm could improve detection sensitivity, the bacteria were lysed.
# Two clinically significant isolates K. pneumoniae expressing KPC carbapenemase (K. pneumoniae/KPC) and E. coli expressing New Delhi metallo β-lactamase (E. coli/NDM) were evaluated.
# as §3
# S. marcescens (SME) = experiment: Clinical isolate spiked in synthetic urine, filtered and centrifuged, S. marcescens (SME); format: cell-based; details: 10 μM D-Bluco, an hour at 37° C., PBS pH 7.4
# Experimental: as §1, §2
# BlaC = molecular target: T1, BlaC (Mycobacterium tuberculosis, UniProt P9WKD3); experiment: Limit of detection of recombinant β-lactamase by bioluminescence (BlaC); format: biochemical; details: 2 hours, room temperature; 3 SD of negative control
# T1 construct: made in house
# [3] = tested on: KPC-3, BlaC, TEM-1, IMP-1, AmpC, OXA-48; experiment: Bioluminescence with panel of recombinant β-lactamases of clinical relevance; format: biochemical
# Experimental: FIGS. 9A and 9B illustrates bioluminescent studies of D-Bluco and O-Bluco treating with various β-lactamases. 10 μM of Bluco, D-Bluco and O-Bluco incubated with 20 nM TEM-1 for 15 min in PBS at r.t. The bioluminescent signals for each compound was evaluated with or without the addition of TEM-1 by a luminator. […] The relative bioluminescent was calculated by removing background signal in PBS.
# Having confirmed the quenching ability of dabcyl to lower D-Bluco bioluminescent background emission, the activity of D-Bluco towards a variety of β-lactamases that are of clinical relevance in addition to TEM-1, including KPC-3, BlaC (Class A), AmpC (Class C), and OXA-48 (Class D) was then assessed. These enzymes were recombinantly expressed and purified. The bioluminescent signal was measured with an IVIS optical imaging system after treating D-Bluco with each enzyme for 2 hours at room temperature.
# D-Bluco and O-Bluco were evaluated with various β-lactamase that of clinical relevance (FIG. 9B and 9C), including KPC-3, BlaC, TEM-1 (Class A), IMP-1 (Class B), AmpC (Class C), and OXA-48 (Class D). These enzymes were recombinantly expressed, purified as previously described^25. The bioluminescent signal was measured after incubating O-Bluco or D-Bluco with each enzyme at different concentrations for 2 hr at r.t. […] This compares favorably to previously reported fluorescent cephalosporin probe with a 1000-fold sensitivity improvement.^26
# The caged luciferin probes were incubated with different concentrations of TEM-1 β-lactamase or IMP-1 carbapenemase (0.001-0.1 fmol) in PBS (pH=7.4) for 2 hr at 25° C. Then a mixture of luciferase (200 nM), ATP (2 mM), and MgCl2 (4 mM) was added, and bioluminescent signals were detected with a SpectraMax microplate reader or a luminator.
# Sequence of TEM-1 (P62593 24-286 limits assumed): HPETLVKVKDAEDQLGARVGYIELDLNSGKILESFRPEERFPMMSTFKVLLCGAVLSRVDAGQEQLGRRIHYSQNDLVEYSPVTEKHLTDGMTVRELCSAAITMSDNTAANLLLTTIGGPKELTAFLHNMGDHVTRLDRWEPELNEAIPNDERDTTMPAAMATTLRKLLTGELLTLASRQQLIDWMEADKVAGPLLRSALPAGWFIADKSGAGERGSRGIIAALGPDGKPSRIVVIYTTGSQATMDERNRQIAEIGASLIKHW
# Sequence of KPC-3 (Q9F663 25-293 H272Y): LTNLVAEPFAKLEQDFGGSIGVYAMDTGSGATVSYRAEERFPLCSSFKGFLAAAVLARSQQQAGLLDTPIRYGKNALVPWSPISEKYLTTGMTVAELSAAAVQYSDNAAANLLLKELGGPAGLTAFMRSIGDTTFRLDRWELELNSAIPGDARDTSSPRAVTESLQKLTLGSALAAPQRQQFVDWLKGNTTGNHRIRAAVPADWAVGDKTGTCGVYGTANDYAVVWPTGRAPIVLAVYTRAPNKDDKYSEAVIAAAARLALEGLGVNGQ
# T1 sequence (P9WKD3 35-307): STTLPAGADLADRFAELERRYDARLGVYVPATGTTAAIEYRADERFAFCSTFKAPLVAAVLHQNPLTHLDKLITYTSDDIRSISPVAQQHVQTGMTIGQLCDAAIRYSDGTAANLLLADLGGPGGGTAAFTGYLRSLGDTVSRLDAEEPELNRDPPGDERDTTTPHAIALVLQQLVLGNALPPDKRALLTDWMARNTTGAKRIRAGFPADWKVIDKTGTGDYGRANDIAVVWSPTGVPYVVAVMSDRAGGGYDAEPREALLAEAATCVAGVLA
smiles,measurement,setting,value
"CN(C)c1ccc(/N=N/c2ccc(C(=O)NCCCCCC(=O)NC3C(=O)N4C(C(=O)O)=C(COc5ccc6nc(C7=N[C@@H](C(=O)O)CS7)sc6c5)C[S+]([O-])C34)cc2)cc1 (stereo partly drawn) [D-Bluco, 3-(((2-((S)-4-carboxy-4,5-dihydrothiazol-2-yl)benzo[d]thiazol-6-yl)oxy)methyl)-7-(6-(4-((E)-(4-(dimethylamino)phenyl)diazenyl)benzamido)hexanamido)-8-oxo-5-thia-1-azabicyclo[4.2.0]oct-2-ene-2-carboxylic acid 5-oxide]",limit of detection (LOD) of TEM-1 (all other β-lactamases),TEM-1,0.001 femtomole
same,limit of detection (LOD) of KPC-3 (all other β-lactamases),KPC-3,0.001 femtomole
same,sensitivity of RAPID BLI assay for clinical isolates in urine samples,[1],10^2-10^3 cfu/mL
same,concentration detected directly without culture,E. cloacae/AmpC,10^2 cfu/mL
same,concentration from which significant bioluminescence enhancement is seen,[2],10^5 c.f.u/mL
same,signal enhancement with lysate compared to intact bacteria,E. coli/NDM lysate,145 fold
same,concentration from which significant bioluminescence enhancement is seen,S. marcescens (SME),10^4 c.f.u/mL
same,limit of detection (LOD) of BlaC (all other β-lactamases),BlaC,0.001 femtomole
same,lowest detectable β-lactamase activity,[3],10-18 moles
same,detection limits for the panel of enzymes,"[3]; KPC-3, BlaC, TEM-1, IMP-1, AmpC, OXA-48, 2 hr at r.t.",within the femtomole range
same,"bioluminescence triggered by β-lactamases TEM-1, KPC-3, BlaC, AmpC, OXA-48","[3]; each enzyme 2 hours at room temperature, IVIS imaging",significant bioluminescence
